# Experimental data from paper PMC5350031 (Circulation, 2017).
# Read-outs that look alike come from different tables or passages of the source.
# Assays:
# [1] = tested on: Tm-E54K and NTG mice; experiment: Echocardiography, cardiac function and morphology after three months treatment; type: in vivo, mouse
# [2] = tested on: hearts of Tm-E54K and NTG mice; experiment: Histology, cell cross-sectional area; type: in vivo, mouse
# [3] = tested on: detergent-extracted fiber bundles of NTG and Tm-E54K mice; type: in vivo, mouse; conditions: 3 months treatment; for Hill Coefficient / Max. Tension / pCa50 (Ca^2+ concentration at half-maximal tension): Mean ± SEM, n = 6–8 fibers
# [4] = tested on: myofilament proteins (MLC2v, TnT, cTnI, cMyBP-C); experiment: Myofilament protein phosphorylation in hearts of chronically treated mice; type: in vivo, mouse
# [5] = tested on: Akt, GSK-3β, β-catenin, phospholamban, ERK1/2, RSK3, SRF, MYPT1/2, SERCA2; experiment: Western blot of signaling pathways in hearts of chronically treated mice; type: in vivo, mouse
# [6] = tested on: β-myosin heavy chain (β-MHC); experiment: β-MHC protein expression in hearts of chronically treated mice; type: in vivo, mouse; conditions: Tm-E54K hearts, chronic treatment; untreated Tm-E54K approximately 30%
# [7] = tested on: RSK3, MYPT1/2 and SRF phosphorylation in neonatal rat ventricular myocytes (NRVM); type: cell-based
# [8] = Tm-E54K hearts, N = 4–6 hearts per group
structure (smiles),measurement,setting,value
CCCCc1nc(Cl)c(CO)n1Cc1ccc(-c2ccccc2-c2nn[nH]n2)cc1 [losartan],cardiac output (in words),[1],did not have improved cardiac output
same,heart rate (in words),[1],nor an increase in heart rate
same,systolic / cardiac function (in words),[1]; vs. Tm-E54K untreated,no changes in cardiac function
same,cross-sectional cell area (in words),[2]; NTG mice,significant decrease
same,cross-sectional cell area (in words),[2]; Tm-E54K mice,no effect
same,maximum tension generation (in words),[3]; NTG mice,decrease in maximum tension generation
same,Hill Coefficient,[3]; NTG mice,2.10 ± 0.12
same,Max. Tension,[3]; NTG mice,25.73 ± 3.31 ^† mN/mm^2
same,pCa50 (Ca^2+ concentration at half-maximal tension),[3]; NTG mice,significant decrease in pCa50 compared to both TRV067 and untreated NTG groups
same,pCa50 (Ca^2+ concentration at half-maximal tension),"[3]; NTG mice, listed as Losartan",5.60 ± 0.02 ^†
same,maximum tension generation (in words),[3]; Tm-E54K mice,no significant effect
same,Hill Coefficient,[3]; Tm-E54K mice,2.00 ± 0.08
same,Max. Tension,[3]; Tm-E54K mice,27.29 ± 1.07 ^∥ mN/mm^2
same,MLC2v phosphorylation (in words),"[4]; Phos-Tag gel electrophoresis, NTG mice, vs. NTG untreated",significantly decreased
same,TnT phosphorylation (in words),"[4]; ProQ diamond, Tm-E54K mice, vs. TRV067-treated Tm-E54K, N = 4–6 hearts per group",significant decrease
same,cMyBP-C phosphorylation at PKA sites (in words),[4]; mice treated with TRV067 or losartan,"did not observe an increase in other PKA phosphorylatable sites, such as cMyBP-C"
same,MYPT1/2 phosphorylation (in words),[5]; NTG and Tm-E54K mice,no effect
same,RSK3 phosphorylation (in words),[5]; NTG and Tm-E54K mice,no effect
same,SRF phosphorylation (in words),[5]; NTG and Tm-E54K mice,no effect
same,phospholamban (PLN) phosphorylation at S16 (in words),"[5]; NTG mice, vs. untreated controls",increase
same,SERCA2 protein expression (in words),"[5]; Tm-E54K and NTG mice, vs. untreated",no effect
same,Akt phosphorylation at S473 (in words),[5]; [8],decreased
same,GSK-3β phosphorylation at S9 (in words),[5]; [8],decreased
same,β-catenin phosphorylation (in words),[5]; [8],increase
same,phospholamban (PLN) phosphorylation at S16 (in words),[5]; Tm-E54K mice,increase
same,phospholamban (PLN) phosphorylation at T17 (in words),[5]; Tm-E54K mice,not the T17 site
same,"β-MHC expression, % of the isoform content",[6],approximately 10%
same,MYPT1/2 phosphorylation (in words),[7],no effect
same,RSK3 phosphorylation (in words),[7],no effect
same,SRF phosphorylation (in words),[7],no effect
